Results: ChEMBL document CHEMBL1143364, “Preliminary evaluation of pharmacological properties of some xanthone derivatives” (Bioorg Med Chem, 2009)
Active and inactive are the calls of the source. No cut-off for these calls is given here.

How the values were obtained:
Rattus norvegicus [1] = experiment: Hypotensive activity in normotensive Wistar rat assessed as reduction in blood pressure at 10 mg/kg, iv after 60 mins; format: functional, organism-based; set-up: dose 10 mg/kg
Mus musculus [2] = experiment: Anticonvulsant activity in CF1 mouse assessed as inhibition of maximal electroshock-induced seizures at 30 mg/kg, ip after 4 hrs; format: functional, organism-based; set-up: dose 30 mg/kg
Rattus norvegicus [3] = experiment: Cardiotoxicity in Wistar rat assessed as decrease in cardiac beats per minute at 10 mg/kg, iv by ECG; format: toxicity, organism-based, Heart; set-up: dose 10 mg/kg, route intravenous; scale not given: the % may be the effect or the level left; settings: in vivo
[4] = biological target: T1, Adrenergic receptor alpha-1 (Rattus norvegicus, UniProt P15823+P23944+P43140); experiment: Displacement of [3H]prazosin from alpha1 adrenergic receptor in rat cerebral cortex by liquid scintillation counting; format: tissue-based
T1 sequence (P15823 whole entry): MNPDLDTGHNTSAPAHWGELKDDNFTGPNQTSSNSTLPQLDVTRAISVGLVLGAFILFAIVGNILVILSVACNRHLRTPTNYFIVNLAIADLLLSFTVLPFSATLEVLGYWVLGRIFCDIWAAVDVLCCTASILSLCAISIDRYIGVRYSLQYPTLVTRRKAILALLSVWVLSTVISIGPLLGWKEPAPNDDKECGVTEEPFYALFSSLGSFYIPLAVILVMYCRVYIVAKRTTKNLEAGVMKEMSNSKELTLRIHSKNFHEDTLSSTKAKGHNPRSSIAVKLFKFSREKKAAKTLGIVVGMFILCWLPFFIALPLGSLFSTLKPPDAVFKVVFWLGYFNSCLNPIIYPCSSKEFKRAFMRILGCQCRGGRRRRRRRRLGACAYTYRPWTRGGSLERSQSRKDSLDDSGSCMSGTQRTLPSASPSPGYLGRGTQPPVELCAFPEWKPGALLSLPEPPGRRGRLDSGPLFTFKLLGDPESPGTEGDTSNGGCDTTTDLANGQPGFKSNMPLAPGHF
T1 sequence (P23944 whole entry): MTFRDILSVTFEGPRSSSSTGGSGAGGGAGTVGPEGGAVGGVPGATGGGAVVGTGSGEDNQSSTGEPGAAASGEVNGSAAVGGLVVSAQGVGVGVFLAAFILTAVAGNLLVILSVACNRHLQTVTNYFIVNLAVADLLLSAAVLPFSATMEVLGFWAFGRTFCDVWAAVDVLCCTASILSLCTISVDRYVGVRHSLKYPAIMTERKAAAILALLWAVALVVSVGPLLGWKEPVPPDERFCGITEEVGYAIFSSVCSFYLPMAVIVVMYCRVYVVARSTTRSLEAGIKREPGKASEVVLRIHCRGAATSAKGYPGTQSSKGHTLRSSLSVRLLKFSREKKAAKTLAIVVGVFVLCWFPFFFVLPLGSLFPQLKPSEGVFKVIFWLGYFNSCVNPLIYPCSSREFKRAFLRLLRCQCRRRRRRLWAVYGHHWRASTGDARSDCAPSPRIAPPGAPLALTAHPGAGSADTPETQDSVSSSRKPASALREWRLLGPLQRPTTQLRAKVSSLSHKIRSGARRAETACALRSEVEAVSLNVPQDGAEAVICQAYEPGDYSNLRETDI
T1 sequence (P43140 whole entry): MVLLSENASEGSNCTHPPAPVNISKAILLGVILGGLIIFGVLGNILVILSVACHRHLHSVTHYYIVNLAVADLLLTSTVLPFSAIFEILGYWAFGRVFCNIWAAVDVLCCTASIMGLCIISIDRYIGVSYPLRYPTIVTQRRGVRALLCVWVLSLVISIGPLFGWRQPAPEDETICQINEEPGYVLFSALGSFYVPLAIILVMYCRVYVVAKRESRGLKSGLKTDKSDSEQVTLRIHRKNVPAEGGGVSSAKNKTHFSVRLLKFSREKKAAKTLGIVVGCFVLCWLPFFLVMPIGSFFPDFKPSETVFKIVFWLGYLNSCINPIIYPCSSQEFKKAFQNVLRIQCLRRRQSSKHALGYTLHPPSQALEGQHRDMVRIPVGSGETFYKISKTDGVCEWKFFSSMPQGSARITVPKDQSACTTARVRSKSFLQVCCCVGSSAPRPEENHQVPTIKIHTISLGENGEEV

[5] = biological target: Beta-1 adrenergic receptor (Rattus norvegicus, UniProt P18090); experiment: biochemical
Sequence of Beta-1 adrenergic receptor (P18090 whole entry): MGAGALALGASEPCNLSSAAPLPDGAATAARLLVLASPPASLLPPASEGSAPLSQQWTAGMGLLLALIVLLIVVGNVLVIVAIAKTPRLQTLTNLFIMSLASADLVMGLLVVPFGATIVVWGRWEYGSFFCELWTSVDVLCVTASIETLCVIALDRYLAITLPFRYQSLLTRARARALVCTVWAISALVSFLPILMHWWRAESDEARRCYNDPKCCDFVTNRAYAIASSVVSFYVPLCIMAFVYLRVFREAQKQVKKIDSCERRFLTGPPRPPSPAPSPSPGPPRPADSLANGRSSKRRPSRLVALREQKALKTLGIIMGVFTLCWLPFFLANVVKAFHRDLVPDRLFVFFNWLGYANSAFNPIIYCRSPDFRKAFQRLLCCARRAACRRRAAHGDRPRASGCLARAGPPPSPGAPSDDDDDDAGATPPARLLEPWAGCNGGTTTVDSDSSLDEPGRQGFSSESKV
Description: Displacement of [3H]CGP12177 from beta-1 adrenergic receptor in rat cerebral cortex by liquid scintillation counting

Rattus norvegicus [6] = experiment: Antiarrhythmic activity in anaesthetized iv dosed Wistar rat assessed as decrease in adrenaline-induced cardiac rhythm disturbance administered 15 mins before adrenaline challenge; format: functional; settings: Heart
Mus musculus [7] = experiment: Anticonvulsant activity in CF1 mouse assessed as inhibition of maximal electroshock-induced seizures at 30 mg/kg, ip after 0.5 hrs; format: functional, organism-based; set-up: dose 30 mg/kg
Mus musculus [8] = experiment: Anticonvulsant activity in CF1 mouse assessed as inhibition of subcutaneous pentylenetetrazole-induced seizures; format: functional, organism-based
Mus musculus [9] = experiment: Neurotoxicity in CF1 mouse at 300 mg/kg, ip after 0.5 hrs by rotarod test; format: toxicity, organism-based; set-up: dose 300 mg/kg, route intraperitoneal; settings: in vivo
Mus musculus [10] = experiment: Anticonvulsant activity in CF1 mouse assessed as inhibition of maximal electroshock-induced seizures at 100 mg/kg, ip after 4 hrs; format: functional, organism-based; set-up: dose 100 mg/kg
Mus musculus [11] = experiment: Neurotoxicity in CF1 mouse at 30 mg/kg, ip after 4 hrs by rotarod test; format: toxicity, organism-based; set-up: dose 30 mg/kg, route intraperitoneal; settings: in vivo
Mus musculus [12] = experiment: Anticonvulsant activity in CF1 mouse assessed as inhibition of maximal electroshock-induced seizures at 300 mg/kg, ip after 4 hrs; format: functional, organism-based; set-up: dose 300 mg/kg
Mus musculus [13] = experiment: Neurotoxicity in CF1 mouse at 100 mg/kg, ip after 0.5 hrs by rotarod test; format: toxicity, organism-based; set-up: dose 100 mg/kg, route intraperitoneal; settings: in vivo
Mus musculus [14] = experiment: Anticonvulsant activity in CF1 mouse assessed as inhibition of maximal electroshock-induced seizures at 300 mg/kg, ip after 0.5 hrs; format: functional, organism-based; set-up: dose 300 mg/kg
Rattus norvegicus [15] = experiment: Cardiotoxicity in Wistar rat assessed as prolongation of PQ interval at 10 mg/kg, iv by ECG; format: toxicity, organism-based; set-up: dose 10 mg/kg, route intravenous; settings: in vivo
Mus musculus [16] = experiment: Neurotoxicity in CF1 mouse at 100 mg/kg, ip after 4 hrs by rotarod test; format: toxicity, organism-based; set-up: dose 100 mg/kg, route intraperitoneal; settings: in vivo
Mus musculus [17] = experiment: Neurotoxicity in CF1 mouse at 30 mg/kg, ip after 0.5 hrs by rotarod test; format: toxicity, organism-based; set-up: dose 30 mg/kg, route intraperitoneal; settings: in vivo
Mus musculus [18] = experiment: Neurotoxicity in CF1 mouse at 300 mg/kg, ip after 4 hrs by rotarod test; format: toxicity, organism-based; set-up: dose 300 mg/kg, route intraperitoneal; settings: in vivo
Mus musculus [19] = experiment: Anticonvulsant activity in CF1 mouse assessed as inhibition of maximal electroshock-induced seizures at 100 mg/kg, ip after 0.5 hrs; format: functional, organism-based; set-up: dose 100 mg/kg
Rattus norvegicus [20] = experiment: Antiarrhythmic activity in anaesthetized Wistar rat assessed as decrease in arrhythmia-induced mortality at 1.25 mg/kg, iv administered 15 mins before adrenaline challenge; format: functional, Heart; set-up: scale not given: the % may be the effect or the level left
Rattus norvegicus [21] = experiment: Hypotensive activity in normotensive Wistar rat assessed as reduction in blood pressure at 0.625 mg/kg, iv after 60 mins; format: functional, organism-based; set-up: dose 0.625 mg/kg
Rattus norvegicus [22] = experiment: Hypotensive activity in normotensive Wistar rat assessed as reduction in systolic blood pressure at 1.25 mg/kg, iv; format: functional, Artery; set-up: scale not given: the % may be the effect or the level left
Rattus norvegicus [23] = experiment: Hypotensive activity in normotensive Wistar rat assessed as reduction in diastolic blood pressure at 1.25 mg/kg, iv; format: functional, Artery; set-up: scale not given: the % may be the effect or the level left
Rattus norvegicus [24] = experiment: Cardiotoxicity in Wistar rat assessed as prolongation of QT interval at 10 mg/kg, iv by ECG; format: toxicity, organism-based; set-up: dose 10 mg/kg, route intravenous; settings: in vivo
Rattus norvegicus [25] = experiment: Cardiotoxicity in Wistar rat assessed as decrease in cardiac beats per minute at 5 mg/kg, iv by ECG; format: toxicity, organism-based, Heart; set-up: dose 5 mg/kg, route intravenous; scale not given: the % may be the effect or the level left; settings: in vivo
Rattus norvegicus [26] = experiment: Cardiotoxicity in Wistar rat assessed as prolongation of PQ interval at 5 mg/kg, iv by ECG; format: toxicity, organism-based; set-up: dose 5 mg/kg, route intravenous; settings: in vivo
Rattus norvegicus [27] = experiment: Hypotensive activity in normotensive Wistar rat assessed as reduction in diastolic blood pressure at 2.5 mg/kg, iv; format: functional, organism-based; set-up: dose 2.5 mg/kg; settings: Artery

SMILES	Activity (Mus musculus [2])	Activity (Rattus norvegicus [3]) [%]	Ki [4] [µM]	Ki [5] [µM]	Activity (Rattus norvegicus [6])	Activity (Mus musculus [7])	Activity (Mus musculus [8])	Activity (Mus musculus [9])	Activity (Mus musculus [10])	Activity (Mus musculus [11])	Activity (Mus musculus [12])	Activity (Mus musculus [13])	Activity (Mus musculus [14])	Activity (Mus musculus [16])	Activity (Mus musculus [17])	Activity (Mus musculus [18])	Activity (Mus musculus [19])	ED50 (Rattus norvegicus [6]) [mg/kg]	other results
CC(C)(CO)NCCCOc1cccc2c(=O)c3ccccc3oc12.Cl	inactive	15	8.7	2.6	Active	inactive	inactive	25%	inactive	Non-toxic	inactive	Non-toxic	inactive	Non-toxic	Non-toxic	Non-toxic	inactive	–	Activity (Rattus norvegicus [1]): Active; Activity (Rattus norvegicus [15]): Toxic
CC(C)(CO)NCC(O)COc1cccc2c(=O)c3ccc(Cl)cc3oc12.Cl (centres undefined)	inactive	30	5.6	0.011	–	inactive	inactive	Toxic	inactive	Non-toxic	inactive	–	inactive	–	–	Toxic	inactive	2.46	Activity (Rattus norvegicus [20]): 60%; Activity (Rattus norvegicus [21]): Active; Activity (Rattus norvegicus [22]): 17%; Activity (Rattus norvegicus [23]): 19%; Activity (Rattus norvegicus [24]): 13%
CC(C)NCC(O)COc1cccc2ccccc12 (centres undefined) [PROPRANOLOL]	–	–	–	–	–	–	–	–	–	–	–	–	–	–	–	–	–	1.05	–
CC(CO)(CO)NCC(O)COc1cccc2c(=O)c3ccccc3oc12.Cl (centres undefined)	inactive	–	49.8	0.004	–	inactive	inactive	25%	inactive	Non-toxic	inactive	Non-toxic	inactive	Non-toxic	Non-toxic	Non-toxic	inactive	1.75	Activity (Rattus norvegicus [25]): 13%; Activity (Rattus norvegicus [26]): Toxic; Activity (Rattus norvegicus [27]): inactive
C=CCNCC(O)COc1ccc2c(=O)c3ccccc3oc2c1.Cl (centres undefined)	inactive	–	8.1	44.4	Active	inactive	inactive	Toxic	inactive	Non-toxic	Active	Non-toxic	Active	Non-toxic	Non-toxic	Non-toxic	–	–	Activity (Rattus norvegicus [1]): Active
C=CCNCCCOc1cccc2c(=O)c3ccccc3oc12.Cl	inactive	20	4.6	7.7	Active	inactive	inactive	Toxic	inactive	Non-toxic	–	–	–	Non-toxic	Non-toxic	–	inactive	–	Activity (Rattus norvegicus [15]): Toxic
CC(CO)(CO)NCC(O)COc1cccc2c(=O)c3ccc(Cl)cc3oc12.Cl (centres undefined)	inactive	–	20.6	0.047	Active	inactive	inactive	Non-toxic	inactive	–	inactive	Non-toxic	inactive	Non-toxic	Non-toxic	–	inactive	–	Activity (Rattus norvegicus [25]): 21%; Activity (Rattus norvegicus [27]): inactive
